Assay results as given in the supplement of paper PMC11451515.

Tested on: P12-Ichikawa
Experiment: cell viability relative to DMSO control; higher = less cytotoxic
Details: 48 h
Summary of the method: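 Viability, reported as a per-plate percentage of DMSO wells with cell-free wells as background, came from CellTiter-Glo One luminescence. Reading took place after 48 h at 37°C. Before that, NOMO1 or SEM (500 cells/well) or P12-Ichikawa (1000 cells/well) leukemia cells, adapted for at least four passages in each medium, were seeded in 1536-well plates (5 μl) and pin-dosed with library compounds in DMSO, 47 μM to 0.79 nM over 11 threefold points.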

[1] = HPLM + 10% dialyzed FBS, 0.000781 µM
[2] = HPLM + 10% dialyzed FBS, 0.00234 µM
[3] = HPLM + 10% dialyzed FBS, 0.00702 µM
[4] = HPLM + 10% dialyzed FBS, 0.0211 µM
[5] = HPLM + 10% dialyzed FBS, 0.0632 µM
[6] = HPLM + 10% dialyzed FBS, 0.19 µM
[7] = HPLM + 10% dialyzed FBS, 0.569 µM
[8] = HPLM + 10% dialyzed FBS, 1.71 µM
[9] = HPLM + 10% dialyzed FBS, 5.12 µM
[10] = HPLM + 10% dialyzed FBS, 15.4 µM
[11] = HPLM + 10% dialyzed FBS, 46.1 µM
[12] = RPMI 5 mM glucose + 10% FBS, 0.000781 µM
[13] = RPMI 5 mM glucose + 10% FBS, 0.00234 µM
[14] = RPMI 5 mM glucose + 10% FBS, 0.00702 µM
[15] = RPMI 5 mM glucose + 10% FBS, 0.0211 µM
[16] = RPMI 5 mM glucose + 10% FBS, 0.0632 µM
[17] = RPMI 5 mM glucose + 10% FBS, 0.19 µM
[18] = RPMI 5 mM glucose + 10% FBS, 0.569 µM
[19] = RPMI 5 mM glucose + 10% FBS, 1.71 µM
[20] = RPMI 5 mM glucose + 10% FBS, 5.12 µM
[21] = RPMI 5 mM glucose + 10% FBS, 15.4 µM
[22] = RPMI 5 mM glucose + 10% FBS, 46.1 µM
[23] = RPMI 5 mM glucose + 10% dialyzed FBS, 0.000781 µM
[24] = RPMI 5 mM glucose + 10% dialyzed FBS, 0.00234 µM
[25] = RPMI 5 mM glucose + 10% dialyzed FBS, 0.00702 µM
[26] = RPMI 5 mM glucose + 10% dialyzed FBS, 0.0211 µM
[27] = RPMI 5 mM glucose + 10% dialyzed FBS, 0.0632 µM
[28] = RPMI 5 mM glucose + 10% dialyzed FBS, 0.19 µM
[29] = RPMI 5 mM glucose + 10% dialyzed FBS, 0.569 µM
[30] = RPMI 5 mM glucose + 10% dialyzed FBS, 1.71 µM
[31] = RPMI 5 mM glucose + 10% dialyzed FBS, 5.12 µM
[32] = RPMI 5 mM glucose + 10% dialyzed FBS, 15.4 µM
[33] = RPMI 5 mM glucose + 10% dialyzed FBS, 46.1 µM

Row | SMILES | cell viability [1] [%] | cell viability [2] [%] | cell viability [3] [%] | cell viability [4] [%] | cell viability [5] [%] | cell viability [6] [%] | cell viability [7] [%] | cell viability [8] [%] | cell viability [9] [%] | cell viability [10] [%] | cell viability [11] [%] | cell viability [12] [%] | cell viability [13] [%] | cell viability [14] [%] | cell viability [15] [%] | cell viability [16] [%] | cell viability [17] [%] | cell viability [18] [%] | cell viability [19] [%] | cell viability [20] [%] | cell viability [21] [%] | cell viability [22] [%] | cell viability [23] [%] | cell viability [24] [%] | cell viability [25] [%] | cell viability [26] [%] | cell viability [27] [%] | cell viability [28] [%] | cell viability [29] [%] | cell viability [30] [%] | cell viability [31] [%] | cell viability [32] [%] | cell viability [33] [%]
1 | CC(C)C[C@H](CC(=O)O)C(=O)N[C@@H](Cc1c[nH]c2ccccc12)C(=O)N[C@@H](C)c1ccccc1 | 95.1 | 102 | 108 | 108 | 112 | 111 | 83.6 | 107 | 73.4 | 42.1 | 22.4 | 89 | 96 | 111 | 101 | 94.2 | 106 | 83.7 | 106 | 72.6 | 53.4 | 32.9 | 103 | 111 | 101 | 119 | 107 | 108 | 103 | 107 | 74.8 | 67.8 | 28.2
2 | CN(C)CCc1c[nH]c2ccc(Cn3cncn3)cc12 | 96.3 | 95 | 107 | 101 | 107 | 97 | 101 | 22.8 | 6.71 | 7.05 | 6.29 | 92 | 101 | 91.4 | 105 | 105 | 69.3 | 91.1 | 30.9 | 8.08 | 6.52 | 4.97 | 93.7 | 89.5 | 88.3 | 92.4 | 97.3 | 68.3 | 76.5 | 22.3 | 7.34 | 6.02 | 5.62
3 | C[C@H](NC(=O)[C@@H](O)c1cc(F)cc(F)c1)C(=O)N[C@@H]1C(=O)N(C)c2ccccc2-c2ccccc21 | 118 | 116 | 111 | 119 | 106 | 108 | 105 | 101 | 96.8 | 102 | 90.1 | 114 | 116 | 119 | 115 | 114 | 111 | 102 | 90.5 | 99.8 | 101 | 94.3 | 114 | 110 | 109 | 109 | 106 | 101 | 99.6 | 106 | 95.8 | 94.3 | 78.5
4 | Cc1nnc(C(=O)NC(C)(C)c2nc(C(=O)NCc3ccc(F)cc3)c(O)c(=O)n2C)o1 | 114 | 110 | 104 | 108 | 109 | 103 | 109 | 90.9 | 102 | 102 | 107 | 107 | 110 | 99.3 | 106 | 102 | 104 | 107 | 95.1 | 103 | 103 | 90.7 | 97.8 | 100 | 104 | 103 | 98.7 | 95.5 | 107 | 94.4 | 95.2 | 91.5 | 92.9
5 | CN1CCC(CNc2ccc3ncc(-c4cccc(OC(F)(F)F)c4)n3n2)CC1 | 108 | 110 | 97.3 | 109 | 105 | 103 | 108 | 102 | 97.4 | 92.8 | 5.65 | 100 | 101 | 89.4 | 102 | 100 | 102 | 99.8 | 94.7 | 89.1 | 79.7 | 4.48 | 92.7 | 92.9 | 92.2 | 95.4 | 94.7 | 92.4 | 101 | 92.3 | 85.9 | 84.3 | 4.77
6 | CO[C@H]1C[C@@H]2CC[C@@H](C)[C@@](O)(O2)C(=O)C(=O)N2CCCC[C@H]2C(=O)O[C@H]([C@@H](C)C[C@@H]2CC[C@@H](O)[C@H](OC)C2)CC(=O)[C@H](C)/C=C(\C)[C@@H](O)[C@@H](OC)C(=O)[C@H](C)C[C@H](C)/C=C/C=C/C=C/1C | 118 | 127 | 122 | 125 | 124 | 116 | 121 | 124 | 113 | 112 | 91.8 |  |  |  |  |  |  |  |  |  |  |  |  |  |  |  |  |  |  |  |  |  | 
7 | COc1cc(N2CCN(C)CC2)ccc1Nc1nc(N)c(C(=O)c2c(Cl)cccc2Cl)s1 | 111 | 118 | 106 | 113 | 111 | 108 | 112 | 103 | 105 | 96.2 | 50.2 | 119 | 117 | 125 | 110 | 114 | 111 | 115 | 105 | 101 | 99.5 | 50.5 | 120 | 120 | 131 | 117 | 112 | 117 | 119 | 114 | 115 | 101 | 54.3
8 | CCN1\C=C(C(O)=O)/C(=O)C2=C1C(=C(N3CCNC(C)C3)C(=C2)F)F (configuration not stated) | 96.7 | 107 | 111 | 125 | 101 | 109 | 119 | 115 | 124 | 118 | 110 | 87 | 94 | 110 | 110 | 109 | 110 | 114 | 113 | 107 | 124 | 116 | 104 | 112 | 110 | 113 | 107 | 116 | 117 | 113 | 124 | 120 | 112
9 | CC(=O)OCC(=O)[C@@]1(O)CC[C@H]2[C@@H]3CCC/4=C/C(=O)/C=C\[C@]4(C)[C@H]3[C@@H](O)C[C@]12C | 120 | 128 | 123 | 126 | 102 | 85.3 | 95.7 | 72.1 | 66.4 | 118 | 109 |  |  |  |  |  |  |  |  |  |  |  | 117 | 118 | 121 | 130 | 92.5 | 77.4 | 100 | 50.8 | 43.8 | 109 | 102
10 | Cc1cnc(Nc2cccc(CN3CCOCC3)c2)nc1Nc1cccc([S+](=O)([O-])NC(C)(C)C)c1 | 90 | 91.9 | 90.5 | 96.2 | 91.9 | 89.3 | 95.1 | 92.2 | 44 | 91.5 | 54.4 | 91 | 87.7 | 85.9 | 92.2 | 89.8 | 88.7 | 80.8 | 86.4 | 20.5 | 88.2 | 73.4 | 80.8 | 83.2 | 82.6 | 79.7 | 85.9 | 82.3 | 85.4 | 81.4 | 41.7 | 76.8 | 53.1
11 | OC(=O)CNC(=O)\C1=C(/O)C2=CC=CC=C2N(CC3=CC=CC=C3)C1=O | 97.6 | 113 | 102 | 104 | 104 | 100 | 105 | 101 | 101 | 103 | 39.4 | 98.7 | 108 | 113 | 114 | 108 | 101 | 102 | 107 | 93 | 97.2 | 92.8 | 90.4 | 97.9 | 104 | 95.1 | 93.1 | 94.4 | 94 | 93.1 | 95.8 | 94.5 | 5.26
12 | CCn1c(C(=O)N(C2CC2)C2CC2)cc2c3c(ncn3C)c(Nc3cc(C)n(C)n3)nc21 | 88.3 | 99.8 | 99.5 | 104 | 109 | 117 | 110 | 108 | 107 | 107 | 86.5 | 92.7 | 116 | 108 | 108 | 118 | 107 | 111 | 110 | 105 | 112 | 91.7 | 90.4 | 100 | 97.6 | 96.4 | 102 | 97.2 | 98 | 98.6 | 102 | 107 | 87.6
13 | NC[C@H](O)c1ccc(O)c(O)c1 | 98.9 | 100 | 99 | 103 | 98.8 | 102 | 97.4 | 92.4 | 92.8 | 92.6 | 83.5 | 101 | 99.5 | 94.1 | 98.9 | 105 | 96.7 | 97.6 | 92.3 | 91.2 | 90.2 | 84.4 | 89.9 | 96 | 99.9 | 88.1 | 96.1 | 97.6 | 86.3 | 93.6 | 92 | 86.5 | 81.5
14 | COc1c(N2C[C@@H]3CCCN[C@@H]3C2)c(F)cc2c(=O)c(C(=O)O)cn(C3CC3)c12.Cl.O | 98.4 | 114 | 107 | 109 | 103 | 114 | 102 | 99.4 | 78.9 | 63 | 70.6 | 116 | 112 | 109 | 112 | 106 | 107 | 91.9 | 92.2 | 53.8 | 12.9 | 54 | 98.7 | 99.5 | 107 | 109 | 98.6 | 97 | 91 | 88.5 | 53.4 | 17.5 | 42.3
15 | CCCCN1CCC(CNC(=O)c2c3n(c4ccccc24)CCCO3)CC1 | 100 | 104 | 109 | 112 | 115 | 109 | 116 | 110 | 107 | 95 | 68.9 | 107 | 105 | 109 | 112 | 118 | 101 | 112 | 114 | 112 | 90.1 | 68 | 92.8 | 107 | 106 | 98.5 | 113 | 105 | 112 | 112 | 109 | 94.7 | 78.5
